Results published in ChEMBL document CHEMBL3797023, “Irregularities in enzyme assays: The case of macrophage migration inhibitory factor” (Bioorg Med Chem Lett, 2016).
In brackets after ≈: the same amount, converted by molar mass.

Experiment: Aqueous solubility of compound at pH 6.5 by shake-flask method
Assay type: physicochemical
Conditions: aqueous medium

Structure (SMILES) | solubility thermodynamic [µg/mL]
Cc1ccc2oc(=O)n(Cc3cccc(O)c3)c2c1 | 21.9 (≈ 85.8 µM)
COc1cc(-c2nc3ccccc3s2)cc(Br)c1OCC(=O)O | 6 (≈ 15.2 µM)
COc1ccc(C(=O)O)cc1NC(=S)NC(=O)c1cc2ccccc2o1 | < 5
Oc1ccc(-n2cc(-c3ccc4cc(OCCOCCN5CCOCC5)ccc4n3)nn2)cc1 | 48.5 (≈ 105 µM)
Oc1cc2c(cc1C(c1ccc(C(F)(F)F)cc1)N1CCOCC1)OCO2 (configuration not stated) | 27.6 (≈ 72.4 µM)
COCCOc1ccc2nc(-c3cn(-c4ccc(O)cc4)nn3)ccc2c1 | 3.6 (≈ 9.93 µM)
O=C(O)c1cccc(NC(=S)NC(=O)c2ccc(-c3ccccc3)cc2)c1 | < 1
